Test results as given in US20260124166A1, “COMPOSITIONS AND METHODS USING GLYCINE TO REDUCE BIOLOGICAL AGE OF AN ADULT ANIMAL” (Société des Produits Nestlé S.A., priority 2022, published 2026).

What was measured:
[1] = old mice (21 months), 1.6 g/kg food glycine in diet for 6 weeks, vs old control diet and young (4 months) mice
Description: 28 wild-type C57BL/6J mice of 21-months old and 12 wild-type C57BL/6J mice of 4-months old were kept in a temperature-and humidity-controlled environment with a 12:12-h light-dark cycle. Mice had access to nesting and enrichment materials and were provided with ad libitum access to water and food.
(§1) Mice underwent to a dietary supplementation for 6 weeks. The young control group (n=12) and old control group (n=14) received a commercial standard powdered diet (Safe 150, Safe Diets), with 20% humidity. […] At the end of the treatment, mice were euthanized with isoflurane after 2-hours fasting. Muscle gastrocnemius has been dissected and samples were snap frozen in liquid nitrogen and stored at −80° C.
Tissue pieces were excised on dry ice with liquid nitrogen cooled scalpels and kept at −80° C. until extraction. For extraction, samples were homogenized in 300 μL −20 ° C. methanol/water (5:3), including a fully labelled 13C yeast biomass as internal standard, using 5 mm stainless steel beads in a tissue grinder (Qiagen TissueLyser II) for up to 3 min at 23 Hz. […] The protein pellets were quantified with a bicinchoninic acid assay for later normalization and the polar phases, containing the metabolites of interest, were dried overnight in a vacuum centrifuge at 4° C. and 5 mbar and stored at −80° C. until analysis. […]

[2] = old mice (21 months), 1.6 g/kg food glycine in diet for 6 weeks, compared to old mice with control diet
Protocol: All animal experiments were performed according to national Swiss and EU ethical guidelines and approved by the local animal experimentation committee under license VD3519. 28 wild-type C57BL/6J mice of 21-months old and 12 wild-type C57BL/6J mice of 4-months old were kept in a temperature-and humidity-controlled environment with a 12:12-h light-dark cycle. Mice had access to nesting and enrichment materials and were provided with ad libitum access to water and food.
as §1
DNA extraction was performed on 100 mg of muscle using QIAGEN DNeasy Blood and Tissue kit (Cat. No: 69506) and following manufacturer recommendations. DNA was quantified using the DropSense technology (Unchained Labs). […]
Raw data were sent to the Clock Foundation, who performed the analyses to calculate the biological age of the samples. […] Data were plotted and analysed using R. One-tailed parametric t statistics was performed to test the effect of the glycine supplementation compared to the control diet.

NCC(=O)O [glycine]
glycine levels in muscle [1]: significantly restores them toward young levels | biological age (DNA methylation, muscle specific clock) [2]: biological age decreases significantly
